Measured values: ChEMBL document CHEMBL1671722, “Comparative in vitro activity profiles of novel bis-indole antibacterials against gram-positive and gram-negative clinical isolates” (Antimicrob Agents Chemother, 2010)
Converted amounts (≈) assume the structure as drawn.

Columns and labels:
Enterococcus faecium [1] = experiment: Antimicrobial activity against vancomycin-resistant Enterococcus faecium by broth microdilution method; assay type: functional
Acinetobacter baumannii [2] = experiment: Antimicrobial activity against Acinetobacter baumannii by broth microdilution method; assay type: functional
Acinetobacter baumannii [3] = experiment: Antimicrobial activity against multiple dug-resistant Acinetobacter baumannii by broth microdilution method; assay type: functional
Streptococcus pneumoniae [4] = experiment: Antimicrobial activity against penicillin-resistant Streptococcus pneumoniae by broth microdilution method; assay type: functional
Clostridioides difficile = experiment: Antimicrobial activity against Clostridium difficile by broth microdilution method; assay type: functional
Streptococcus agalactiae = experiment: Antimicrobial activity against Streptococcus agalactiae by broth microdilution method; assay type: functional
Enterococcus faecalis [5] = experiment: Antimicrobial activity against vancomycin-resistant Enterococcus faecalis by broth microdilution method; assay type: functional
[6] = Cytotoxicity against HeLa cells after 3 days by MTS assay; assay type: cell-based; settings: human
Haemophilus influenzae = experiment: Antimicrobial activity against Haemophilus influenzae by broth microdilution method; assay type: functional
Streptococcus pneumoniae [7] = experiment: Antimicrobial activity against penicillin-intermediate Streptococcus pneumoniae by broth microdilution method; assay type: functional
Escherichia coli = experiment: Antimicrobial activity against Escherichia coli by broth microdilution method; assay type: functional
Pseudomonas aeruginosa = experiment: Antimicrobial activity against Pseudomonas aeruginosa by broth microdilution method; assay type: functional
Staphylococcus aureus [8] = experiment: Antimicrobial activity against methicillin-resistant Staphylococcus aureus by broth microdilution method; assay type: functional
[9] = tested on: Staphylococcus epidermidis; experiment: Antimicrobial activity against methicillin-susceptible Staphylococcus epidermidis by broth microdilution method; assay type: functional
Serratia marcescens = experiment: Antimicrobial activity against Serratia marcescens by broth microdilution method; assay type: functional
Enterococcus faecalis [10] = experiment: Antimicrobial activity against vancomycin-susceptible Enterococcus faecalis by broth microdilution method; assay type: functional
Proteus mirabilis = experiment: Antimicrobial activity against Proteus mirabilis by broth microdilution method; assay type: functional
Streptococcus pneumoniae [11] = experiment: Antimicrobial activity against penicillin-susceptible Streptococcus pneumoniae by broth microdilution method; assay type: functional
Burkholderia cepacia = experiment: Antimicrobial activity against Burkholderia cepacia by broth microdilution method; assay type: functional
Klebsiella pneumoniae [12] = experiment: Antimicrobial activity against ESBL-production Klebsiella pneumoniae by broth microdilution method; assay type: functional
Staphylococcus aureus [13] = experiment: Antimicrobial activity against methicillin-susceptible Staphylococcus aureus by broth microdilution method; assay type: functional
Klebsiella pneumoniae [14] = experiment: Antimicrobial activity against Klebsiella pneumoniae by broth microdilution method; assay type: functional
Enterococcus faecium [15] = experiment: Antimicrobial activity against vancomycin-susceptible Enterococcus faecium by broth microdilution method; assay type: functional
[16] = tested on: Staphylococcus epidermidis; experiment: Antimicrobial activity against methicillin-resistant Staphylococcus epidermidis by broth microdilution method; assay type: functional
[17] = Protein binding to serum; assay type: ADME, cell-free; settings: read-out: PB (converted)

SMILES: c1cc2cc(-c3ccc(-c4cc5ccc(C6=NCCCN6)cc5[nH]4)cc3)[nH]c2cc1C1=NCCCN1
- MIC (Enterococcus faecium [1]): 0.004 µg/mL (≈ 0.00846 µM)
- MIC50 (Enterococcus faecium [1]): 0.004 µg/mL (≈ 0.00846 µM)
- MIC90 (Enterococcus faecium [1]): 0.004 µg/mL (≈ 0.00846 µM)
- MIC50 (Acinetobacter baumannii [2]): 0.5 µg/mL (≈ 1.06 µM)
- MIC90 (Acinetobacter baumannii [2]): 4 µg/mL (≈ 8.46 µM)
- MIC50 (Acinetobacter baumannii [3]): 2 µg/mL (≈ 4.23 µM)
- MIC90 (Acinetobacter baumannii [3]): 4 µg/mL (≈ 8.46 µM)
- MIC50 (Streptococcus pneumoniae [4]): 0.03 µg/mL (≈ 0.0635 µM)
- MIC90 (Streptococcus pneumoniae [4]): 0.06 µg/mL (≈ 0.127 µM)
- MIC50 (Clostridioides difficile): 0.06 µg/mL (≈ 0.127 µM)
- MIC90 (Clostridioides difficile): 0.12 µg/mL (≈ 0.254 µM)
- MIC (Streptococcus agalactiae): 0.03 µg/mL (≈ 0.0635 µM)
- MIC50 (Streptococcus agalactiae): 0.03 µg/mL (≈ 0.0635 µM)
- MIC90 (Streptococcus agalactiae): 0.03 µg/mL (≈ 0.0635 µM)
- MIC50 (Enterococcus faecalis [5]): 0.015 µg/mL (≈ 0.0317 µM)
- MIC90 (Enterococcus faecalis [5]): 0.03 µg/mL (≈ 0.0635 µM)
- CC50 at 72 h [6]: 4 µg/mL (≈ 8.46 µM)
- MIC50 (Haemophilus influenzae): 1 µg/mL (≈ 2.12 µM)
- MIC90 (Haemophilus influenzae): 4 µg/mL (≈ 8.46 µM)
- MIC50 (Streptococcus pneumoniae [7]): 0.03 µg/mL (≈ 0.0635 µM)
- MIC90 (Streptococcus pneumoniae [7]): 0.03 µg/mL (≈ 0.0635 µM)
- MIC50 (Escherichia coli): 0.12 µg/mL (≈ 0.254 µM)
- MIC90 (Escherichia coli): 0.25 µg/mL (≈ 0.529 µM)
- MIC50 (Pseudomonas aeruginosa): 0.25 µg/mL (≈ 0.529 µM)
- MIC90 (Pseudomonas aeruginosa): 1 µg/mL (≈ 2.12 µM)
- MIC50 (Staphylococcus aureus [8]): 0.06 µg/mL (≈ 0.127 µM)
- MIC90 (Staphylococcus aureus [8]): 0.12 µg/mL (≈ 0.254 µM)
- MIC50 [9]: 0.03 µg/mL (≈ 0.0635 µM)
- MIC90 [9]: 0.06 µg/mL (≈ 0.127 µM)
- MIC (Serratia marcescens): 0.12 µg/mL (≈ 0.254 µM)
- MIC50 (Serratia marcescens): 0.12 µg/mL (≈ 0.254 µM)
- MIC90 (Serratia marcescens): 0.25 µg/mL (≈ 0.529 µM)
- MIC50 (Enterococcus faecalis [10]): 0.06 µg/mL (≈ 0.127 µM)
- MIC90 (Enterococcus faecalis [10]): 0.06 µg/mL (≈ 0.127 µM)
- MIC50 (Proteus mirabilis): 1 µg/mL (≈ 2.12 µM)
- MIC90 (Proteus mirabilis): 2 µg/mL (≈ 4.23 µM)
- MIC50 (Streptococcus pneumoniae [11]): 0.03 µg/mL (≈ 0.0635 µM)
- MIC90 (Streptococcus pneumoniae [11]): 0.03 µg/mL (≈ 0.0635 µM)
- MIC50 (Burkholderia cepacia): 0.06 µg/mL (≈ 0.127 µM)
- MIC90 (Burkholderia cepacia): 0.12 µg/mL (≈ 0.254 µM)
- MIC50 (Klebsiella pneumoniae [12]): 0.12 µg/mL (≈ 0.254 µM)
- MIC90 (Klebsiella pneumoniae [12]): 0.5 µg/mL (≈ 1.06 µM)
- MIC50 (Staphylococcus aureus [13]): 0.12 µg/mL (≈ 0.254 µM)
- MIC90 (Staphylococcus aureus [13]): 0.5 µg/mL (≈ 1.06 µM)
- MIC50 (Klebsiella pneumoniae [14]): 0.25 µg/mL (≈ 0.529 µM)
- MIC90 (Klebsiella pneumoniae [14]): 0.5 µg/mL (≈ 1.06 µM)
- MIC50 (Enterococcus faecium [15]): 0.004 µg/mL (≈ 0.00846 µM)
- MIC90 (Enterococcus faecium [15]): 0.015 µg/mL (≈ 0.0317 µM)
- MIC50 [16]: 0.015 µg/mL (≈ 0.0317 µM)
- MIC90 [16]: 0.06 µg/mL (≈ 0.127 µM)

SMILES: c1cc2cc(-c3ccc(-c4cc5ccc(C6=NCCN6)cc5[nH]4)cc3)[nH]c2cc1C1=NCCN1
- fraction unbound [17]: 0.75
- MIC50 (Enterococcus faecium [1]): 0.004 µg/mL (≈ 0.009 µM)
- MIC90 (Enterococcus faecium [1]): 0.004 µg/mL (≈ 0.009 µM)
- MIC50 (Acinetobacter baumannii [2]): 8 µg/mL (≈ 18 µM)
- MIC90 (Acinetobacter baumannii [2]): > 16 µg/mL
- MIC50 (Acinetobacter baumannii [3]): > 16 µg/mL
- MIC (Streptococcus pneumoniae [4]): 0.03 µg/mL (≈ 0.0675 µM)
- MIC50 (Streptococcus pneumoniae [4]): 0.03 µg/mL (≈ 0.0675 µM)
- MIC90 (Streptococcus pneumoniae [4]): 0.06 µg/mL (≈ 0.135 µM)
- MIC50 (Clostridioides difficile): 0.06 µg/mL (≈ 0.135 µM)
- MIC90 (Clostridioides difficile): 0.12 µg/mL (≈ 0.27 µM)
- MIC (Streptococcus agalactiae): 0.03 µg/mL (≈ 0.0675 µM)
- MIC50 (Streptococcus agalactiae): 0.03 µg/mL (≈ 0.0675 µM)
- MIC90 (Streptococcus agalactiae): 0.03 µg/mL (≈ 0.0675 µM)
- MIC50 (Enterococcus faecalis [5]): 0.03 µg/mL (≈ 0.0675 µM)
- MIC90 (Enterococcus faecalis [5]): 0.06 µg/mL (≈ 0.135 µM)
- CC50 at 72 h [6]: 33 µg/mL (≈ 74.2 µM)
- MIC50 (Haemophilus influenzae): 4 µg/mL (≈ 9 µM)
- MIC90 (Haemophilus influenzae): > 16 µg/mL
- MIC50 (Streptococcus pneumoniae [7]): 0.015 µg/mL (≈ 0.0337 µM)
- MIC90 (Streptococcus pneumoniae [7]): 0.12 µg/mL (≈ 0.27 µM)
- MIC50 (Escherichia coli): 0.12 µg/mL (≈ 0.27 µM)
- MIC90 (Escherichia coli): 0.5 µg/mL (≈ 1.12 µM)
- MIC50 (Pseudomonas aeruginosa): > 16 µg/mL
- MIC90 (Pseudomonas aeruginosa): > 16 µg/mL
- MIC (Staphylococcus aureus [8]): 0.06 µg/mL (≈ 0.135 µM)
- MIC50 (Staphylococcus aureus [8]): 0.06 µg/mL (≈ 0.135 µM)
- MIC90 (Staphylococcus aureus [8]): 0.12 µg/mL (≈ 0.27 µM)
- MIC50 [9]: 0.008 µg/mL (≈ 0.018 µM)
- MIC90 [9]: 0.03 µg/mL (≈ 0.0675 µM)
- MIC50 (Serratia marcescens): 1 µg/mL (≈ 2.25 µM)
- MIC90 (Serratia marcescens): 2 µg/mL (≈ 4.5 µM)
- MIC50 (Enterococcus faecalis [10]): 0.06 µg/mL (≈ 0.135 µM)
- MIC90 (Enterococcus faecalis [10]): 0.06 µg/mL (≈ 0.135 µM)
- MIC50 (Proteus mirabilis): > 16 µg/mL
- MIC90 (Proteus mirabilis): > 16 µg/mL
- MIC50 (Streptococcus pneumoniae [11]): 0.015 µg/mL (≈ 0.0337 µM)
- MIC90 (Streptococcus pneumoniae [11]): 0.03 µg/mL (≈ 0.0675 µM)
- MIC (Burkholderia cepacia): ≤ 0.015 µg/mL
- MIC50 (Burkholderia cepacia): ≤ 0.015 µg/mL
- MIC90 (Burkholderia cepacia): 0.06 µg/mL (≈ 0.135 µM)
- MIC50 (Klebsiella pneumoniae [12]): 1 µg/mL (≈ 2.25 µM)
- MIC90 (Klebsiella pneumoniae [12]): > 16 µg/mL
- MIC50 (Staphylococcus aureus [13]): 0.12 µg/mL (≈ 0.27 µM)
- MIC90 (Staphylococcus aureus [13]): 0.25 µg/mL (≈ 0.562 µM)
- MIC50 (Klebsiella pneumoniae [14]): 2 µg/mL (≈ 4.5 µM)
- MIC90 (Klebsiella pneumoniae [14]): 8 µg/mL (≈ 18 µM)
- MIC50 (Enterococcus faecium [15]): 0.004 µg/mL (≈ 0.009 µM)
- MIC90 (Enterococcus faecium [15]): 0.015 µg/mL (≈ 0.0337 µM)
- MIC50 [16]: 0.015 µg/mL (≈ 0.0337 µM)
- MIC90 [16]: 0.03 µg/mL (≈ 0.0675 µM)
